Laboratory results: the NIST ThermoML archive (doi:10.1016/j.jct.2013.08.010)

How the values were obtained:
[1] = mn = molality of the nth substance listed, in mol/kg; settings: 101 kPa, Liquid; for speed of sound: Sing-around technique in a fixed-path interferometer; for mass density: Vibrating tube method
[2] = 101 kPa, Liquid, Sing-around technique in a fixed-path interferometer

O=C([O-])CC(O)(CC(=O)[O-])C(=O)[O-].[Na+].[Na+].[Na+] [trisodium citrate] + O
[1]
Settings	mass density, 288.15 K [kg/m3]	mass density, 298.15 K [kg/m3]	mass density, 308.15 K [kg/m3]	mass density, 318.15 K [kg/m3]	speed of sound, 288.15 K [m/s]	speed of sound, 298.15 K [m/s]	speed of sound, 308.15 K [m/s]	speed of sound, 318.15 K [m/s]
m1 = 0.2	1034.67	1031.98	1028.5	1024.36	1508	1536	1556.9	1571.8
m1 = 0.4	1071.21	1067.93	1064.13	1059.23	1552.2	1577.5	1595.8	1608.3
m1 = 0.6	1104.43	1100.68	1096.96	1092.26	1591.5	1614	1630.3	1641.2
m1 = 0.8	1137.97	1133.93	1129.43	1124.5	1634	1653.8	1667.3	1676.2

O [water]
[2]
Settings	speed of sound [m/s]
288.15 K	1463.1
298.15 K	1495.8
308.15 K	1519.1
